Format in all cases: in vivo
Assay [1] deals with Bassia scoparia (KCHSC). As to the kind of experiment: Post-emergence herbicidal efficacy at 320 g/ha, greenhouse pot test. The following applies: visual rating vs untreated control after about 3 weeks. In a few lines:
(§1)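 Weeds sown in sandy loam and grown in greenhouse, sprayed at one-leaf stage (2–3 weeks after sowing) with WP or EC formulations plus 0.5% additive in 600 L/ha water. Visual activity rated after about 3 weeks against untreated controls (100% = plants dead, 0% = like control).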

For assay [2], the system named is Amaranthus retroflexus (AMARE). Described as above. As to conditions: visual rating vs untreated control after about 3 weeks. In a few lines:
as §1

The subject of assay [3] is Poa annua (POAAN). The description is as above. As to conditions: visual rating vs untreated control after about 3 weeks. The method in brief:
as §1

For assay [4], the system named is Stellaria media (STEME). Described as above. As to conditions: visual rating vs untreated control after about 3 weeks. In a few lines:
as §1

The subject of assay [5] is Veronica persica (VERPE). The description is as above. The following applies: 320 g/ha, visual rating vs untreated control after about 3 weeks. In a few lines:
as §1

Assay [6] has as its system Abutilon theophrasti (ABUTH). The description is as above. As to conditions: visual rating vs untreated control after about 3 weeks. The method in brief: as §1
Assay [7] deals with Alopecurus myosuroides (ALOMY). The description is as above. As to conditions: visual rating vs untreated control after about 3 weeks. In a few lines:
as §1

The test system of assay [8] is Setaria viridis (SETVI). The experiment in a line: Pre-emergence herbicide efficacy at 320 g/ha, greenhouse pot test. As to conditions: visual scoring vs untreated control after about 3 weeks. In a few lines: (§2)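 Weed seeds were sown in sandy loam in pots, one mono- or dicot species per pot, and covered with soil. WP or EC formulations were sprayed onto the soil surface as aqueous suspension or emulsion with 0.5% additive at 600 L/ha water. Visual scoring after about 3 weeks, % activity versus untreated controls.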

Assay [9] concerns Bassia scoparia (KCHSC). The description is as above. The method in brief: as §2
Another assay deals with Lolium rigidum (LOLRI). The assay is described as above. The following applies: visual scoring vs untreated control after about 3 weeks. The method in brief:
as §2

Assay [10] relates to Amaranthus retroflexus (AMARE). The assay is described as above. The following applies: visual scoring vs untreated control after about 3 weeks. In a few lines: as §2
Assay [11] deals with Poa annua (POAAN). Described as above. As to conditions: visual scoring vs untreated control after about 3 weeks. In a few lines:
as §2

The subject of assay [12] is Stellaria media (STEME). Described as above. As to conditions: visual scoring vs untreated control after about 3 weeks. In a few lines: as §2
Assay [13] deals with Veronica persica (VERPE). The assay is described as above. The following applies: visual scoring vs untreated control after about 3 weeks. The method in brief: as §2
Assay [14] concerns Abutilon theophrasti (ABUTH). The assay is described as above. The following applies: visual scoring vs untreated control after about 3 weeks. The method in brief:
as §2

In assay [15] the test system is Echinochloa crus-galli (ECHCG). The assay is described as above. The following applies: visual scoring vs untreated control after about 3 weeks. The method in brief: as §2
Assay [16] concerns Matricaria inodora (MATIN). The description is as above. The following applies: visual scoring vs untreated control after about 3 weeks. The method in brief: as §2
Assay [17] has as its system Alopecurus myosuroides (ALOMY). Described as above. As to conditions: visual scoring vs untreated control after about 3 weeks. The method in brief:
as §2

Assay [18] has as its system Viola tricolor (VIOTR). The experiment in a line: Post-emergence herbicidal efficacy at 80 g/ha, greenhouse pot test. As to conditions: visual rating vs untreated control after about 3 weeks. As for the experimental part: (§3) Seeds of monocotyledonous and dicotyledonous weeds and crop plants were placed in sandy loam in plastic or organic planting pots, covered with soil and cultivated in a greenhouse under controlled growth conditions. 2 to 3 weeks after sowing, the test plants were treated at the one-leaf stage. The compounds of the invention, formulated in the form of wettable powders (WP) or as emulsion concentrates (EC), were then sprayed onto the green parts of the plants as aqueous suspension or emulsion with addition of 0.5% additive at a water application rate of 600 l/ha (converted). After the test plants had been kept in the greenhouse under optimum growth conditions for about 3 weeks, the activity of the preparations was rated visually in comparison to untreated controls. For example, 100% activity=the plants have died, 0% activity=like control plants. Tables B1 to B6 below show the effects of selected compounds of the general formula (I) according to Table 1 on various harmful plants and an application rate corresponding to 80 g/ha, which were obtained by the experimental procedure mentioned above.

The subject of assay [19] is Amaranthus retroflexus (AMARE). Described as above. The following applies: visual rating vs untreated control after about 3 weeks. As for the experimental part: as §3
For assay [20], the system named is Setaria viridis (SETVI). As to the kind of experiment: Pre-emergence herbicide efficacy at 80 g/ha, greenhouse pot test. As to conditions: visual scoring vs untreated control after about 3 weeks. An excerpt: (§4) Seeds of monocotyledonous and dicotyledonous weed plants and crop plants were placed in plastic or organic planting pots and covered with soil. The compounds of the invention, formulated in the form of wettable powders (WP) or as emulsion concentrates (EC), were then applied to the surface of the covering soil as aqueous suspension or emulsion with addition of 0.5% additive at a water application rate of […] (converted). After the treatment, the pots were placed in a greenhouse and kept under good growth conditions for the test plants. After about 3 weeks, the effect of the preparations was scored visually in comparison with untreated controls as percentages. For example, 100% activity=the plants have died, 0% activity=like control plants. Tables D1 to D12 below show the effects of selected compounds of the general formula (I) according to Table 1 on various harmful plants and an application rate corresponding to 80 g/ha, which were obtained by the experimental procedure mentioned above.

Assay [21] concerns Viola tricolor (VIOTR). Described as above. As to conditions: visual scoring vs untreated control after about 3 weeks.
Description: as §4

The subject of assay [22] is Polygonum convolvulus (POLCO). The assay is described as above. The following applies: visual scoring vs untreated control after about 3 weeks.
Description: as §4

Assay [23] deals with Amaranthus retroflexus (AMARE). The description is as above. The following applies: visual scoring vs untreated control after about 3 weeks.
Description: as §4

Assay [24] has as its system Veronica persica (VERPE). The assay is described as above. As to conditions: visual scoring vs untreated control after about 3 weeks.
Description: as §4

The test system of assay [25] is Abutilon theophrasti (ABUTH). The assay is described as above. The following applies: visual scoring vs untreated control after about 3 weeks.
Description: as §4

Assay [26] concerns Matricaria inodora (MATIN). Described as above. As to conditions: visual scoring vs untreated control after about 3 weeks.
Description: as §4

The test system of assay [27] is Alopecurus myosuroides (ALOMY). The assay is described as above. The following applies: visual scoring vs untreated control after about 3 weeks.
Description: as §4

Assay [28] has as its system Veronica persica (VERPE). The experiment in a line: Post-emergence herbicidal efficacy at 80 g/ha, greenhouse pot test. The following applies: visual rating vs untreated control after about 3 weeks. As for the experimental part:
as §3

The record followed here is patent US20230303549A1, “SUBSTITUTED HETEROARYLOXYPYRIDINES, THE SALTS THEREOF AND THEIR USE AS HERBICIDAL AGENTS” (Bayer Aktiengesellschaft, priority 2020, published 2023).

On to `Cc1cc(C)c(-c2cc(C(F)F)no2)c(Oc2ncc(Cl)cn2)n1` [Example I-1], for which the “Post-emergence efficacy against Bassia scoparia (KCHSC)” value in the assay on Bassia scoparia (KCHSC) [1] is 90%. For the same molecule, the “Post-emergence efficacy against Amaranthus retroflexus (AMARE)” value in [2] and in assay [19] was 100% throughout. For the same molecule, the “Post-emergence efficacy against Poa annua (POAAN)” value in the assay with Poa annua (POAAN) [3] came to 90%. In addition, the “Post-emergence action against Stellaria media (STEME)” value in the assay with Stellaria media (STEME) [4] came out at 100%. Besides, in the assay with Veronica persica (VERPE) [5], the “Post-emergence efficacy against Veronica persica (VERPE)” value worked out at 100%. Moreover, the “Post-emergence efficacy against Abutilon theophrasti (ABUTH)” value in assay [6] is on record as 90%. The “Post-emergence efficacy against Alopecurus myosuroides (ALOMY)” value in assay [7] was determined as 90%. Further, the “Pre-emergence efficacy against Setaria viridis (SETVI)” value turned out to be 100% in the assay on Setaria viridis (SETVI) [8] and 80% in the assay on Setaria viridis (SETVI) [20]. In the assay on Bassia scoparia (KCHSC) [9] (320 g/ha, visual scoring vs untreated control after about 3 weeks), the “Pre-emergence efficacy against Bassia scoparia (KCHSC)” value was 90%. Further, the “Pre-emergence efficacy against Lolium rigidum (LOLRI)” value with Lolium rigidum (LOLRI) is on record as 90%. Besides, the “Pre-emergence efficacy against Amaranthus retroflexus (AMARE)” value in [10] and in [23] was 100% each time. In addition, the “Pre-emergence efficacy against Poa annua (POAAN)” value in the assay with Poa annua (POAAN) [11] stood at 100%. In addition, the “Pre-emergence efficacy against Stellaria media (STEME)” value in the assay on Stellaria media (STEME) [12] came to 100%. The “Pre-emergence efficacy against Veronica persica (VERPE)” value with Veronica persica (VERPE) [13] is on record as 100%; in the assay on Veronica persica (VERPE) [24], 90%. Also, the entries for the “Pre-emergence efficacy against Abutilon theophrasti (ABUTH)” value in assay [14] and in [25] were 100% and 80%, respectively. The “Pre-emergence efficacy against Echinochloa crus-galli (ECHCG)” value in assay [15] worked out at 100%. In addition, the “Pre-emergence efficacy against Matricaria inodora (MATIN)” value in [16] and in assay [26] was 100% throughout. Moreover, the figures for the “Pre-emergence efficacy against Alopecurus myosuroides (ALOMY)” value in assay [17] and in assay [27] were 100% and 90%, respectively. In addition, in the assay with Viola tricolor (VIOTR) [18], the “Post-emergence efficacy against Viola tricolor (VIOTR)” value is given as 90%. In addition, the “Pre-emergence efficacy against Viola tricolor (VIOTR)” value with Viola tricolor (VIOTR) [21] came to 90%. Besides, the “Pre-emergence efficacy against Polygonum convolvulus (POLCO)” value in assay [22] is recorded as 90%.

On to `Cc1cc(C)c(-c2cc(C(F)F)no2)c(Oc2ccc(C#N)cn2)n1` [Example I-292], for which the “Post-emergence efficacy against Bassia scoparia (KCHSC)” value in the assay on Bassia scoparia (KCHSC) [1] came out at 90%. Also, the “Post-emergence efficacy against Amaranthus retroflexus (AMARE)” value in assay [2] came to 100%; in assay [19], 90%. Besides, the “Post-emergence efficacy against Poa annua (POAAN)” value with Poa annua (POAAN) [3] stood at 100%. Besides, the “Post-emergence action against Stellaria media (STEME)” value in the assay with Stellaria media (STEME) [4] worked out at 100%. For the same molecule, the “Post-emergence efficacy against Veronica persica (VERPE)” value in the assay on Veronica persica (VERPE) [5] came to 100%; with Veronica persica (VERPE) [28] it was 90%. Also, the “Post-emergence efficacy against Abutilon theophrasti (ABUTH)” value in [6] was determined as 90%. Besides, the “Pre-emergence efficacy against Setaria viridis (SETVI)” value with Setaria viridis (SETVI) [8] is 90%. For the same molecule, in the assay with Bassia scoparia (KCHSC) [9] (dosage 1280 g/ha in Table C6, visual scoring after about 3 weeks), the “Pre-emergence efficacy against Bassia scoparia (KCHSC)” value worked out at 100%. The “Pre-emergence efficacy against Amaranthus retroflexus (AMARE)” value in assay [10] and in [23] was 100% each time. Further, the “Pre-emergence efficacy against Stellaria media (STEME)” value in the assay on Stellaria media (STEME) [12] amounted to 100%. For the same molecule, the “Pre-emergence efficacy against Veronica persica (VERPE)” value with Veronica persica (VERPE) [13] and with Veronica persica (VERPE) [24] was 90% in each case. Moreover, the “Pre-emergence efficacy against Abutilon theophrasti (ABUTH)” value in assay [14] is 90%. For the same molecule, the “Pre-emergence efficacy against Matricaria inodora (MATIN)” value in assay [16] came out at 100%. Moreover, the “Post-emergence efficacy against Viola tricolor (VIOTR)” value with Viola tricolor (VIOTR) [18] is reported as 90%. Further, the “Pre-emergence efficacy against Viola tricolor (VIOTR)” value in the assay on Viola tricolor (VIOTR) [21] came out at 90%. Besides, the “Pre-emergence efficacy against Alopecurus myosuroides (ALOMY)” value in assay [27] is listed as 80%.
